According to patent US20170121646A1, “Improved Stabilization of Non-Protease Enzyme” (Novozymes A/S, priority 2014, published 2017):

Experiments:
Assay type in all cases: biochemical
Savinase [1] = molecular target: T1, Savinase (Lederbergia lenta, UniProt P29600); assay: Storage stability in Detergent M, residual protease activity after 1 week at 40° C.; conditions: for Residual activity at dose 1 / Residual activity at dose 2 / Inhibitor dose 1: 1 week 40° C. vs −18° C. reference; for Inhibitor dose 1: dose 1 = concentration C found by interpolation; for ((residual activity at dose 2) − (residual activity at dose 1))/((residual activity at dose 1) − (residual activity at no inhibitor)): criterion that defines dose 1; for Inhibitor dose 2: dose 2 = 2×dose 1
T1 sequence (P29600 1-269): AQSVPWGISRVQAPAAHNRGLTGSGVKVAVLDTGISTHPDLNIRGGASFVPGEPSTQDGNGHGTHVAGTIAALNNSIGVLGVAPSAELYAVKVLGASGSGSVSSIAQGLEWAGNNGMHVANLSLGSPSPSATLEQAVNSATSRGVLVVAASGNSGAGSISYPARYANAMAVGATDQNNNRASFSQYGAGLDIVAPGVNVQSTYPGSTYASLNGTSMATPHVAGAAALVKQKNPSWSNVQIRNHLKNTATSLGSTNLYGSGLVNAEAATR
Excerpt: An inhibitor concentration C is defined, so that when the inhibitor concentration is doubled from a concentration of C to a concentration of 2C (i.e., 2C=2×C), the residual protease activity increases (“residual protease activity at 2C”−“residual protease activity at C”) by 25% of the residual protease activity increase from no inhibitor to C (“residual protease activity at C”−“residual activity at no inhibitor”). “No inhibitor” means that the concentration of inhibitor is zero.
The test system to determine “dose 1” (C) and “dose 2” (2C) is described in Example 1. A model detergent system is used (detergent A) and protease, lipase, and different concentrations of protease inhibitor are added (detergent M). Residual protease activity is determined by comparing activity after storage for 1 week at 40° C. with 1 week at −18° C. The data are used to prepare a dose response curve which is used to identify the inhibitor concentration C.
Various peptide aldehydes were produced by a custom peptide synthesis company, all with a purity>80%. The peptide aldehydes were dissolved in DMSO to a concentration of 10 mg/mL before use.
Further the following detergents with protease inhibitors were prepared. The detergents were placed in closed glasses at 40° C. Residual activity of protease was measured (by comparison to a reference stored at −18° C.) after 1 week, using standard enzyme analytical methods (protease measured by hydrolysis of N,N-dimethylcasein at 40° C., pH 8.3). The inhibitor levels tested relative to protease were in the range 0.5-500 molar ratio (inhibitor:protease). The data points were connected and the inhibitor dose 1 and dose 2 were determined by interpolation so that ((residual protease activity at dose 2)−(residual protease activity at dose 1))/((residual protease activity at dose 1)−(residual protease activity at no inhibitor))=0.25; and dose 2=2×dose 1.

Savinase [2] = molecular target: T1, Savinase; assay: Storage stability in Detergent C, residual protease activity after 4 weeks at 30° C.; conditions: Detergent C with Savinase; for %-points per dose (residual protease activity): increase from dose 1 to dose 2
Description: (§1) Further the following detergents with protease inhibitors were prepared. The detergents were placed in closed glasses at 30° C. Residual activity of lipase and protease was measured (by comparison to a reference stored at −18° C.) after 4 weeks, using standard enzyme analytical methods (protease measured by hydrolysis of N,N-dimethylcasein at 40° C., pH 8.3 and lipase measured by hydrolysis of p-nitrophenyl valerate at 40° C., pH 7.7). Z-GA-NHCH(CH2C6H4OH)CH(OH)SO3Na was added in a concentration of 8.1 mg/L (dose 1) and 16.1 mg/L (dose 2). 4-FPBA was added in a concentration of 80 mg/L (dose 1) and 160 mg/L (dose 2).

Lipase (Lipex 100L) [3] = assay: Storage stability in Detergent C with Savinase, residual lipase activity after 4 weeks at 30° C.; conditions: increase from dose 1 to dose 2
Description: as §1

Lipase (Lipex 100L) [4] = assay: Storage stability in Detergent C with Liquanase, residual lipase activity after 4 weeks at 30° C.; conditions: increase from dose 1 to dose 2
Description: as §1
Target sequence in this assay (O59952 23-291 T253R/N255R): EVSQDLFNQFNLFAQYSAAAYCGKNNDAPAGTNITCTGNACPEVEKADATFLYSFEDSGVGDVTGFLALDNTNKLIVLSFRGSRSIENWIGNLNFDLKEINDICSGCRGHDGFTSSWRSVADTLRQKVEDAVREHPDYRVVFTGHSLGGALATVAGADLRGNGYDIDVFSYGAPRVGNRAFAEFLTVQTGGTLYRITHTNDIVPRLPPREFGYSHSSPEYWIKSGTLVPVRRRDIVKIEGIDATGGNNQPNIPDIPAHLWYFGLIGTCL

Protease (Savinase 16L) = molecular target: T2, Protease (Savinase 16L) (Lederbergia lenta, UniProt P29600); assay: Storage stability in Detergent B, residual protease activity after 4 weeks at 30° C.; conditions: increase from dose 1 (12.9 mg/L) to dose 2 (26.0 mg/L)
T2 sequence (P29600 1-269): T1 sequence (P29600 1-269)
Description: as §1, with “12.9” for “8.1”, “26.0” for “16.1”, “2).” for “2). 4-FPBA was added in a concentration of 80 mg/L (dose 1) and 160 mg/L (dose 2).”

Liquanase = assay: Storage stability in Detergent C, residual protease activity after 4 weeks at 30° C.; conditions: Detergent C with Liquanase; increase from dose 1 to dose 2
Description: as §1

Lipase (Lipex 100L) [5] = assay: Storage stability in Detergent B (with Savinase), residual lipase activity after 4 weeks at 30° C.; conditions: increase from dose 1 (12.9 mg/L) to dose 2 (26.0 mg/L)
Description: as §1, with “12.9” for “8.1”, “26.0” for “16.1”, “2).” for “2). 4-FPBA was added in a concentration of 80 mg/L (dose 1) and 160 mg/L (dose 2).”
Target sequence in this assay (O59952 23-291 T253R/N255R): as above

Row | Compound | Residual activity at dose 1 (Savinase [1]) [%] | Residual activity at dose 2 (Savinase [1]) [%] | Inhibitor dose 1 (Savinase [1]) [mg/mL] | ((residual activity at dose 2) − (residual activity at dose 1))/((residual activity at dose 1) − (residual activity at no inhibitor)) (Savinase [1]) [%] | Inhibitor dose 2 (Savinase [1]) [mg/mL] | remaining activity at 80 µg/mL (Savinase [2]; 4 weeks 30° C. vs −18° C. reference, dose 1: Z-GA-NHCH(CH2C6H4OH)CH(OH)SO3Na 8.1 mg/L, 4-FPBA 80 mg/L, read-out: Inhibitor dose 1 (residual protease activity)) [%] | remaining activity at 160 µg/mL (Savinase [2]; 4 weeks 30° C. vs −18° C. reference, dose 2: Z-GA-NHCH(CH2C6H4OH)CH(OH)SO3Na 16.1 mg/L, 4-FPBA 160 mg/L, read-out: Inhibitor dose 2 (residual protease activity)) [%] | %-points per dose (residual protease activity) (Savinase [2]) [%] | %-points per dose (residual lipase activity) (Lipase (Lipex 100L) [3]) [%] | %-points per dose (residual lipase activity) (Lipase (Lipex 100L) [4]) [%] | %-points per dose (residual protease activity) (Protease (Savinase 16L)) [%] | %-points per dose (residual protease activity) (Liquanase) [%] | %-points per dose (residual lipase activity) (Lipase (Lipex 100L) [5]) [%]
1 | Cbz-Gly-Ala-Leu-H [Z-GAL-H] | 50 | 60 | 5.7 | 25 | 11.5 |  |  |  |  |  |  |  | 
2 | O=Cc1ccc(B(O)O)cc1 [4-FPBA, 4-formyl-phenyl-boronic acid] | 63 | 75 | 91 | 25 | 182 | 98 | 98 | 0 | 16 |  |  |  | 
3 | Z-GA-NHCH(CH2C6H4OH)CH(OH)SO3Na |  |  | 8.1 | 25 | 16.1 |  |  | 9 | 21 | 25 | 10 | 0 | 30
4 | Cbz-Gly-Ala-Phe-H [Z-GAF-H] | 75 | 90 | 18.7 | 25 | 37.5 |  |  |  |  |  |  |  | 
